Data on 14 molecules can be found in US12161722B2, “Bifunctional heterocyclic compound having BTK degradation function via ubiquitin proteasome pathway, and use thereof” (KOREA RESEARCH INSTITUTE OF CHEMICAL TECHNOLOGY, priority 2021, dated 2024).

As a reminder, the DC50 is the concentration at which degradation of the target reaches its halfway point.

T1 sequence (Q06187 whole entry): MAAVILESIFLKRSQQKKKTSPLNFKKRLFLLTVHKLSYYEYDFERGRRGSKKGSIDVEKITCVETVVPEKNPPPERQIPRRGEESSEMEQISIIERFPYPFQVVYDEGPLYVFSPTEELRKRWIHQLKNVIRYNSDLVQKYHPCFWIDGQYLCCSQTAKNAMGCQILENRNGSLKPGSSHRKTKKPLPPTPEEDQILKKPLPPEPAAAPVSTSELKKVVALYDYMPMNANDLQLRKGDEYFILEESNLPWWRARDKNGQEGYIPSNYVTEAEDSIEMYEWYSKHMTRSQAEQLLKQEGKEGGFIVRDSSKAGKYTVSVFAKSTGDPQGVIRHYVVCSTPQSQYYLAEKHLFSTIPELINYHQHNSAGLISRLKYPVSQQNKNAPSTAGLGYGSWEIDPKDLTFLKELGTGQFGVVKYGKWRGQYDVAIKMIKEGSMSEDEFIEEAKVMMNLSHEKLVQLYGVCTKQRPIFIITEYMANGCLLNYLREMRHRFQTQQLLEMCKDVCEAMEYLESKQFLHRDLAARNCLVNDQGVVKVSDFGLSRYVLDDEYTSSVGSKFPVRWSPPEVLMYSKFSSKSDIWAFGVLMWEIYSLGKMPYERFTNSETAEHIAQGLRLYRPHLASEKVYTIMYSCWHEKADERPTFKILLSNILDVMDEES

The experiment has as its target T1, WT BTK protein (Homo sapiens, UniProt Q06187).
T1 construct: measured for intracellular BTK protein levels by Western blotting; endogenous in cells; host or cells: TMD-8 or RAMOS cells
Kind of experiment: BTK protein degradation assay (Western blotting), WT BTK. Format: cell-based. As to conditions: concentration range accounting for 50% degradation of WT BTK protein, TMD-8 or RAMOS cells, 24 hours. Summed up:
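TMD-8 cells (1×10^6 cells/mL) treated 24 h with compound serial dilutions, then lysed in RIPA. Equal protein loads analysed by Western blot for BTK with GAPDH/β-actin as loading controls; activity binned by concentration giving 50% WT BTK degradation.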
(A western blot detects proteins with antibodies after separation by electrophoresis.)
Take `Cc1cccc(C)c1Nc1nn(C(C)C)c2nc(Nc3ccc4c(c3)CN(CC3CCN(c5ccc6c(c5)C(=O)N(C5CCC(=O)NC5=O)C6=O)CC3)CC4)ncc12` (centres unmarked) [Compound 86, 5-(4-((7-((3-((2,6-Dimethylphenyl)amino)-1-isopropyl-1H-pyrazolo[3,4-d]pyrimidin-6-yl)amino)-3,4-dihydroisoquinolin-2 (1H)-yl)methyl)piperidin-1-yl)-2-(2,6-dioxopiperidin-3-yl)isoindoline-1,3-dione]: the DC50 lay within 0.1 to 10 nM.
The figure for `Cc1cccc(C)c1Nc1nn(C)c2nc(Nc3ccc4c(c3)CN(C(=O)CNc3ccc5c(c3)CN(C3CCC(=O)NC3=O)C5=O)CC4)ncc12` (centres unmarked) [Compound 81, 3-(5-((2-(7-((3-((2,6-Dimethylphenyl)amino)-1-methyl-1H-pyrazolo[3,4-d]pyrimidin-6-yl)amino)-3,4-dihydroisoquinolin-2 (1H)-yl)-2-oxoethyl)amino)-1-oxoisoindolin-2-yl)piperidin-2,6-one] is 0.1 to 10 nM; for `Cc1cccc(C)c1Nc1nn(C)c2nc(Nc3ccc(C4CCN(CC5CCN(c6ccc7c(c6)C(=O)N(C6CCC(=O)NC6=O)C7=O)CC5)CC4)cc3F)ncc12` (centres unmarked) [Compound 231, 5-(4-((4-(4-((3-((2,6-Dimethylphenyl)amino)-1-methyl-1H-pyrazolo[3,4-d]pyrimidin-6-yl)amino)-3-fluorophenyl)piperidin-1-yl)methyl)piperidin-1-yl)-2-(2,6-dioxopiperidin-3-yl)isoindoline-1,3-dione] it is 10 to 1000 nM.
Consider `Cc1cccc(C)c1Nc1nn(C)c2nc(Nc3ccc(C4CCN(C(=O)C5CCN(c6ccc7c(c6)n(C)c(=O)n7C6CCC(=O)NC6=O)CC5)CC4)cc3)ncc12` (centres unmarked) [Compound 262, 3-(5-(4-(4-(4-((3-((2,6-Dimethylphenyl)amino)-1-methyl-1H-pyrazolo[3,4-d]pyrimidin-6-yl)amino)phenyl)piperidine-1-carbonyl)piperidin-1-yl)-3-methyl-2-oxo-2,3-dihydro-1H-benzo[d]imidazol-1-yl)piperidin-2,6-one], for which the DC50 lay within 0.1 to 10 nM.
To `Cc1cccc(C)c1Nc1nn(C)c2nc(Nc3ccc4c(c3)CN(C(=O)CNc3ccc5c(c3)C(=O)N(C3CCC(=O)NC3=O)C5=O)CC4)ncc12` (centres unmarked) [Compound 72, 5-((2-(7-((3-((2,6-Dimethylphenyl)amino)-1-methyl-1H-pyrazolo[3,4-d]pyrimidin-6-yl)amino)-3,4-dihydroisoquinolin-2 (1H)-yl)-2-oxoethyl)amino)-2-(2,6-dioxopiperidin-3-yl)isoindoline-1,3-dione] belongs 10 to 1000 nM; to `Cc1cccc(C)c1Nc1nn(C)c2nc(Nc3ccc4c(c3)CN(C(=O)[C@H]3CC[C@H](OC5CCN(c6ccc7c(c6)C(=O)N(C6CCC(=O)NC6=O)C7=O)CC5)CC3)CC4)ncc12` (some centres unmarked) [Compound 128, 5-(4-(((1r,4r)-4-(7-((3-((2,6-dimethylphenyl)amino)-1-methyl-H-pyrazolo[3,4-d]pyrimidin-6-yl)amino)-1,2,3,4-tetrahydroisoquinoline-2-carbonyl)cyclohexyl)oxy)piperidin-1-yl)-2-(2,6-dioxopiperidin-3-yl)isoindoline-1,3-dione], 0.1 to 10 nM.
Regarding `Cc1cccc(C)c1Nc1nn(C)c2nc(Nc3ccc4c(c3)CN(C3CN(C[C@@H]5CCN(c6ccc7c(c6)C(=O)N(C6CCC(=O)NC6=O)C7=O)C5)C3)CC4)ncc12` (stereo partly drawn) [Compound 151, 5-((S)-3-((3-(7-((3-((2,6-Dimethylphenyl)amino)-1-methyl-1H-pyrazolo[3,4-d]pyrimidin-6-yl)amino)-3,4-dihydroisoquinolin-2 (1H)-yl)azetidin-1-yl)methyl)pyrrolidin-1-yl)-2-(2,6-dioxopiperidin-3-yl)isoindoline-1,3-dione], the DC50 lay within 0.1 to 10 nM.
On to `Cn1nc(Nc2c(Cl)cccc2I)c2cnc(Nc3ccc4c(c3)CN(CC3CCN(c5ccc6c(c5)C(=O)N(C5CCC(=O)NC5=O)C6=O)CC3)CC4)nc21` (centres unmarked) [Compound 219, 5-(4-((7-((3-((2-chloro-6-iodophenyl)amino)-1-methyl-1H-pyrazolo[3,4-d]pyrimidin-6-yl)amino)-3,4-dihydroisoquinolin-2 (1H)-yl)methyl)piperidin-1-yl)-2-(2,6-dioxopiperidin-3-yl)isoindoline-1,3-dione], for which the DC50 fell in the range of 0.1 to 10 nM.
To `Cc1cccc(C)c1Nc1nn(C)c2nc(Nc3ccc4c(c3)CN(CC(=O)N3CCC(Oc5ccc6c(c5)CN(C5CCC(=O)NC5=O)C6=O)CC3)CC4)ncc12` (centres unmarked) [Compound 106, 3-(5-((1-(2-(7-((3-((2,6-dimethylphenyl)amino)-1-methyl-1H-pyrazolo[3,4-d]pyrimidin-6-yl)amino)-3,4-dihydroisoquinolin-2 (1H)-yl)acetyl)piperidin-4-yl)oxy)-1-oxoisoindolin-2-yl)piperidin-2,6-one] belongs 10 to 1000 nM; to `Cc1cccc(C)c1Nc1nn(C)c2nc(Nc3ccc(N4CCN(C[C@H]5CCN(c6ccc7c(c6)C(=O)N(C6CCC(=O)NC6=O)C7=O)C5)CC4)nc3)ncc12` (stereo partly drawn) [Compound 154, 5-((R)-3-((4-(5-((3-((2,6-Dimethylphenyl)amino)-1-methyl-1H-pyrazolo[3,4-d]pyrimidin-6-yl)amino)pyridin-2-yl)piperazin-1-yl)methyl)pyrrolidin-1-yl)-2-(2,6-dioxopiperidin-3-yl)isoindoline-1,3-dione], 0.1 to 10 nM.
To `Cc1cccc(C)c1Nc1nn(C)c2nc(Nc3ccc(N4CCN(c5ccc6c(c5)C(=O)N(C5CCC(=O)NC5=O)C6=O)CC4)cc3)ncc12` (centres unmarked) [Compound 238, 5-(4-(4-((3-((2,6-dimethylphenyl)amino)-1-methyl-1H-pyrazolo[3,4-d]pyrimidin-6-yl)amino)phenyl)piperazin-1-yl)-2-(2,6-dioxopiperidin-3-yl)isoindoline-1,3-dione] belongs 0.1 to 10 nM; to `Cc1cccc(C)c1Nc1nn(C)c2nc(Nc3ccc4c(c3)CN(C3CCN(C[C@@H]5CCCN(c6ccc7c(c6)C(=O)N(C6CCC(=O)NC6=O)C7=O)C5)CC3)CC4)ncc12` (stereo partly drawn) [Compound 141, 5-((S)-3-((4-(7-((3-((2,6-dimethylphenyl)amino)-1-methyl-1H-pyrazolo[3,4-d]pyrimidin-6-yl)amino)-3,4-dihydroisoquinolin-2 (1H)-yl)piperidin-1-yl)methyl)piperidin-1-yl)-2-(2,6-dioxopiperidin-3-yl)isoindoline-1,3-dione], 0.1 to 10 nM; to `Cc1cccc(C)c1Nc1nn(C)c2nc(Nc3ccc4c(c3)CN(C[C@@H]3[C@H]5CN(c6ccc7c(c6)C(=O)N(C6CCC(=O)NC6=O)C7=O)C[C@@H]35)CC4)ncc12` (stereo partly drawn) [Compound 148, 5-((1R,5S,6S)-6-((7-((3-((2,6-Dimethylphenyl)amino)-1-methyl-1H-pyrazolo[3,4-d]pyrimidin-6-yl)amino)-3,4-dihydroisoquinolin-2 (1H)-yl)methyl)-3-azabicyclo[3.1.0]hexan-3-yl)-2-(2,6-dioxopiperidin-3-yl)isoindoline-1,3-dione], 0.1 to 10 nM.
Turning to `Cc1cccc(C)c1Nc1nn(C)c2nc(Nc3ccc4c(c3)CN(CC3CCN(C(=O)CCc5cccc6c5CN(C5CCC(=O)NC5=O)C6=O)CC3)CC4)ncc12` (centres unmarked) [Compound 64, 3-(4-(3-(4-((7-((3-((2,6-Dimethylphenyl)amino)-1-methyl-1H-pyrazolo[3,4-d]pyrimidin-6-yl)amino)-3,4-dihydroisoquinolin-2 (1H)-yl)methyl)piperidin-1-yl)-3-oxopropyl)-1-oxoisoindolin-2-yl)piperidin-2,6-one], the DC50 lay in the range of 0.1 to 10 nM.
